Experimental data reported in US9074014B2 (Ipsen Pharma S.A.S., priority 2008, dated 2015).
Where a SMILES comes first, the peptide text is derived from it. [ ]: non-standard residue; d: D form. Nle = CCCC[C@H](N)C(=O)O; Ac5c = NC1(C(=O)O)CCCC1; Aib = CC(C)(N)C(=O)O

What was measured:
[1] = Human plasma half-life assay; type: in vitro ADME; settings: human plasma, 37° C., LC-MS; for half-life at 0.1 mg/ml: read-out: Human Plasma T½ (converted)
Description: (§1) B. Human and Rat Plasma Half-Life Assay
(§2) 50 μL was removed at various times, like at 0, 1, 2, 3, 4, 8, 24, 32, 48, 56, 72 hours, mixed with 5 μL formic acid and 150 μL acetonitrile in a microcentrifuge tube, vertexed, and centrifuged for 10 minutes at 10K rpm. The supernatant was transferred to an injection vial and analyzed by LC-MS. The LC-MS system consisted of an API4000 mass spectrometer with an ESI probe. Positive ion mode and full scan detection were used. HPLC separation was carried out on a Luna 3μ C8 (2), 2×30 mm column with a gradient from 90% A to 90% B in 10 minutes at a flow rate of 0.3 ml/min. Buffer A was 1% formic acid in water and buffer B was 1% formic acid acetonitrile.

[2] = Rat plasma half-life assay; type: in vitro ADME; settings: rat plasma, 37° C., LC-MS; for half-life at 0.1 mg/ml: read-out: Rat Plasma T½ (converted)
Description: as §1, §2

SMILES | half-life at 0.1 mg/ml [1] [min] | half-life at 0.1 mg/ml [2] [min] | Human Plasma T½ [1] [h] | Rat Plasma T½ [2] [h]
CC[C@H](C)[C@H](NC(=O)[C@H](CCCCN)NC(=O)[C@H](CC(=O)O)NC(=O)[C@H](CCSC)NC(=O)C(C)(C)NC(=O)[C@@H](NC(=O)[C@H](CO)NC(=O)[C@H](Cc1ccc(O)cc1)NC(=O)[C@H](CC(=O)O)NC(=O)[C@H](CO)NC(=O)[C@@H](NC(=O)[C@H](Cc1ccccc1)NC(=O)[C@@H](NC(=O)CNC(=O)[C@H](CCC(=O)O)NC(=O)C(C)(C)NC(=O)[C@@H](N)Cc1ccc(O)cc1)[C@@H](C)O)[C@@H](C)CC)[C@@H](C)CC)C(=O)N[C@@H](Cc1c[nH]cn1)C(=O)N[C@@H](CCC(N)=O)C(=O)N[C@@H](CCC(N)=O)C(=O)N[C@@H](CC(=O)O)C(=O)N[C@@H](Cc1ccccc1)C(=O)N[C@H](C(=O)N[C@@H](CC(N)=O)C(=O)N[C@@H](Cc1c[nH]c2ccccc12)C(=O)N[C@@H](CC(C)C)C(=O)N[C@@H](CC(C)C)C(=O)N[C@@H](C)C(=O)N[C@@H](CCC(N)=O)C(=O)N[C@@H](CCCCN)C(N)=O)C(C)C [Example 47, (Aib^2, 13)hGIP(1-30)-NH2] (H-Y[Aib]EGTFISDYSI[Aib]MDKIHQQDFVNWLLAQK-NH2; N-terminus assumed) | 2720 | 1850 | – | –
CC[C@H](C)[C@H](NC(=O)[C@H](CCCCN)NC(=O)[C@H](CC(=O)O)NC(=O)C1(NC(=O)[C@H](C)NC(=O)[C@@H](NC(=O)C2(NC(=O)[C@H](Cc3ccc(O)cc3)NC(=O)[C@H](CC(=O)O)NC(=O)[C@H](CO)NC(=O)[C@@H](NC(=O)[C@H](Cc3ccccc3)NC(=O)[C@@H](NC(=O)CNC(=O)[C@H](CCC(=O)O)NC(=O)C(C)(C)NC(=O)[C@@H](N)Cc3ccc(O)cc3)[C@@H](C)O)[C@@H](C)CC)CCCC2)[C@@H](C)CC)CCCCC1)C(=O)N[C@@H](Cc1c[nH]cn1)C(=O)N[C@@H](CCC(N)=O)C(=O)N[C@@H](CCC(N)=O)C(=O)N[C@@H](CC(=O)O)C(=O)N[C@@H](Cc1ccccc1)C(=O)N[C@H](C(=O)N[C@@H](CC(N)=O)C(=O)N[C@@H](Cc1c[nH]c2ccccc12)C(=O)N[C@@H](CC(C)C)C(=O)N[C@@H](CC(C)C)C(=O)N[C@@H](C)C(=O)N[C@@H](CCC(N)=O)C(=O)N[C@@H](CCCCN)C(N)=O)C(C)C [Example 48, (Aib^2, A5c^11, A6c^14)hGIP(1-30)-NH2] | > 3360 | > 3240 | – | –
CCCC[C@H](NC(=O)C(C)(C)NC(=O)[C@@H](NC(=O)[C@H](CO)NC(=O)[C@H](Cc1ccc(O)cc1)NC(=O)[C@H](CC(=O)O)NC(=O)[C@H](CO)NC(=O)[C@@H](NC(=O)[C@H](Cc1ccccc1)NC(=O)[C@@H](NC(=O)CNC(=O)[C@H](CCC(=O)O)NC(=O)C(C)(C)NC(=O)[C@@H](N)Cc1ccc(O)cc1)[C@@H](C)O)[C@@H](C)CC)[C@@H](C)CC)C(=O)N[C@@H](CC(=O)O)C(=O)N[C@@H](CCCCN)C(=O)N[C@H](C(=O)N[C@@H](Cc1c[nH]cn1)C(=O)N[C@@H](CCC(N)=O)C(=O)N[C@@H](CCC(N)=O)C(=O)N[C@@H](CC(=O)O)C(=O)N[C@@H](Cc1ccccc1)C(=O)N[C@H](C(=O)N[C@@H](CC(N)=O)C(=O)N[C@@H](Cc1c[nH]c2ccccc12)C(=O)N[C@@H](CC(C)C)C(=O)N[C@@H](CC(C)C)C(=O)N[C@@H](C)C(=O)N[C@@H](CCC(N)=O)C(=O)N[C@@H](CCCCN)C(N)=O)C(C)C)[C@@H](C)CC [Example 49, (Aib^2, 13, Nle^14)hGIP(1-30)-NH2] (H-Y[Aib]EGTFISDYSI[Aib][Nle]DKIHQQDFVNWLLAQK-NH2; N-terminus assumed) | – | – | >56 | 45.0
CCCC[C@H](NC(=O)[C@H](C)NC(=O)[C@@H](NC(=O)C1(NC(=O)[C@H](Cc2ccc(O)cc2)NC(=O)[C@H](CC(=O)O)NC(=O)[C@H](CO)NC(=O)[C@@H](NC(=O)[C@H](Cc2ccccc2)NC(=O)[C@@H](NC(=O)CNC(=O)[C@H](CCC(=O)O)NC(=O)C(C)(C)NC(=O)[C@@H](N)Cc2ccc(O)cc2)[C@@H](C)O)[C@@H](C)CC)CCCC1)[C@@H](C)CC)C(=O)N[C@@H](CC(=O)O)C(=O)N[C@@H](CCCCN)C(=O)N[C@H](C(=O)N[C@@H](Cc1c[nH]cn1)C(=O)N[C@@H](CCC(N)=O)C(=O)N[C@@H](CCC(N)=O)C(=O)N[C@@H](CC(=O)O)C(=O)N[C@@H](Cc1ccccc1)C(=O)N[C@H](C(=O)N[C@@H](CC(N)=O)C(=O)N[C@@H](Cc1c[nH]c2ccccc12)C(=O)N[C@@H](CC(C)C)C(=O)N[C@@H](CC(C)C)C(=O)N[C@@H](C)C(=O)N[C@@H](CCC(N)=O)C(=O)N[C@@H](CCCCN)C(N)=O)C(C)C)[C@@H](C)CC [Example 50, (Aib^2, A5c^11, Nle^14)hGIP(1-30)-NH2] (H-Y[Aib]EGTFISDY[Ac5c]IA[Nle]DKIHQQDFVNWLLAQK-NH2; N-terminus assumed) | – | – | 48.1 | >54
CC[C@H](C)[C@H](NC(=O)[C@H](CO)NC(=O)[C@H](Cc1ccc(O)cc1)NC(=O)[C@H](CC(=O)O)NC(=O)[C@H](CO)NC(=O)C1(NC(=O)[C@H](Cc2ccccc2)NC(=O)[C@@H](NC(=O)CNC(=O)[C@H](CCC(=O)O)NC(=O)C(C)(C)NC(=O)[C@@H](N)Cc2ccc(O)cc2)[C@@H](C)O)CCCCC1)C(=O)N[C@@H](C)C(=O)NC1(C(=O)N[C@@H](CC(=O)O)C(=O)N[C@@H](CCCCN)C(=O)N[C@H](C(=O)N[C@@H](Cc2c[nH]cn2)C(=O)N[C@@H](CCC(N)=O)C(=O)N[C@@H](CCC(N)=O)C(=O)N[C@@H](CC(=O)O)C(=O)N[C@@H](Cc2ccccc2)C(=O)N[C@H](C(=O)N[C@@H](CC(N)=O)C(=O)N[C@@H](Cc2c[nH]c3ccccc23)C(=O)N[C@@H](CC(C)C)C(=O)N[C@@H](CC(C)C)C(=O)N[C@@H](C)C(=O)N[C@@H](CCC(N)=O)C(=O)N[C@@H](CCCCN)C(=O)NCC(=O)N[C@@H](CCCCN)C(=O)N[C@@H](CCCCN)C(=O)N[C@@H](CC(N)=O)C(=O)N[C@@H](CC(=O)O)C(=O)N[C@@H](Cc2c[nH]c3ccccc23)C(=O)N[C@@H](CCCCN)C(=O)N[C@@H](Cc2c[nH]cn2)C(=O)N[C@@H](CC(N)=O)C(=O)N[C@H](C(=O)N[C@H](C(=O)N[C@@H](CCC(N)=O)C(=O)O)[C@@H](C)O)[C@@H](C)CC)C(C)C)[C@@H](C)CC)CCCCC1 [Example 51, (Aib^2, A6c^7, 14)hGIP(1-42)-OH] | 2030 | 762 | – | –
CC[C@H](C)[C@H](NC(=O)[C@H](CO)NC(=O)[C@H](Cc1ccc(O)cc1)NC(=O)[C@H](CC(=O)O)NC(=O)[C@H](CO)NC(=O)C1(NC(=O)[C@H](Cc2ccccc2)NC(=O)[C@@H](NC(=O)CNC(=O)[C@H](CCC(=O)O)NC(=O)C(C)(C)NC(=O)[C@@H](N)Cc2ccc(O)cc2)[C@@H](C)O)CCCCC1)C(=O)N[C@@H](C)C(=O)N[C@@H](CCSC)C(=O)N[C@@H](CC(=O)O)C(=O)N[C@@H](CCCCN)C(=O)N[C@H](C(=O)N[C@@H](Cc1c[nH]cn1)C(=O)N[C@@H](CCC(N)=O)C(=O)N[C@@H](CCC(N)=O)C(=O)N[C@@H](CC(=O)O)C(=O)N[C@@H](Cc1ccccc1)C(=O)N[C@H](C(=O)N[C@@H](CC(N)=O)C(=O)N[C@@H](Cc1c[nH]c2ccccc12)C(=O)N[C@@H](CC(C)C)C(=O)N[C@@H](CC(C)C)C(=O)N[C@@H](C)C(=O)N[C@@H](CCC(N)=O)C(=O)N[C@@H](CCCCN)C(N)=O)C(C)C)[C@@H](C)CC [Example 52, (Aib^2, A6c^7)hGIP(1-30)-NH2] | 840 | 1690 | – | –
CCCC[C@H](NC(=O)C(C)(C)NC(=O)[C@@H](NC(=O)[C@H](CO)NC(=O)[C@H](Cc1ccc(O)cc1)NC(=O)[C@H](CC(=O)O)NC(=O)[C@H](CO)NC(=O)[C@@H](NC(=O)[C@H](Cc1ccccc1)NC(=O)[C@@H](NC(=O)CNC(=O)[C@@H]1CC(O)CN1C(=O)[C@H](C)NC(=O)[C@@H](N)Cc1ccc(O)cc1)[C@@H](C)O)[C@@H](C)CC)[C@@H](C)CC)C(=O)N[C@@H](CC(=O)O)C(=O)N[C@@H](CCCCN)C(=O)N[C@H](C(=O)N[C@@H](Cc1c[nH]cn1)C(=O)N[C@@H](CCC(N)=O)C(=O)N[C@@H](CCC(N)=O)C(=O)N[C@@H](CC(=O)O)C(=O)N[C@@H](Cc1ccccc1)C(=O)N[C@H](C(=O)N[C@@H](CC(N)=O)C(=O)N[C@@H](Cc1c[nH]c2ccccc12)C(=O)N[C@@H](CC(C)C)C(=O)N[C@@H](CC(C)C)C(=O)N[C@@H](C)C(=O)N[C@@H](CCC(N)=O)C(=O)N[C@@H](CCCCN)C(=O)NCC(=O)N[C@@H](CCCCN)C(=O)N[C@@H](CCCCN)C(=O)N[C@@H](CC(N)=O)C(=O)N[C@@H](CC(=O)O)C(=O)N[C@@H](Cc1c[nH]c2ccccc12)C(=O)N[C@@H](CCCCN)C(=O)N[C@@H](Cc1c[nH]cn1)C(=O)N[C@@H](CC(N)=O)C(=O)N[C@H](C(=O)N[C@H](C(=O)N[C@@H](CCC(N)=O)C(=O)O)[C@@H](C)O)[C@@H](C)CC)C(C)C)[C@@H](C)CC (some centres unmarked) [Example 68, (4Hyp^3, Aib^13, Nle^14)hGIP(1-42)-OH] | > 2880 | 114 | – | –
